Data published in ChEMBL document CHEMBL1128776, “Palladium-catalyzed synthesis of (E)-5-(2-acylvinyl)-2-deoxyuridines and their antiviral and cytotoxic activities” (Bioorg Med Chem Lett, 1995).
In brackets after ≈: the same amount, converted by molar mass.

Tests used:
Vero [1] = assay: Evaluated in vitro for antiviral activity in vero cell cultures against Reovirus type 1; assay type: functional; details: Chlorocebus sabaeus
FM3A = assay: Evaluated in vitro for cytostatic activity against murine mammary carcinoma cells (FM3A); assay type: functional, cell-based; details: Mus musculus
E6SM [2] = assay: Minimum cytotoxic concentration against E6SM cells; assay type: functional; details: Homo sapiens
HEL [3] = assay: Cytotoxic concentration required to reduce cell growth HEL cells (after 3 days) by 50 %; assay type: functional; details: Homo sapiens, 72 h
HEL [4] = assay: Evaluated in vitro for antiviral activity in human embryonic lung (HEL) cell cultures against Varicella-Zoster virus (VZV) strain YS; assay type: functional, cell-based
HEL [5] = assay: Evaluated in vitro for antiviral activity in HeLa cell cultures against vesicular stomatitis virus (VSV); assay type: functional; details: Homo sapiens
E6SM [6] = assay: In vitro antiviral activity in E6 cell cultures against vesicular stomatitis virus (VSV); assay type: functional; details: Homo sapiens
Vero [7] = assay: Evaluated in vitro for antiviral activity in vero cell cultures against Sindbis virus; assay type: functional; details: Chlorocebus sabaeus
HEL [8] = assay: Evaluated in vitro for antiviral activity in human embryonic lung (HEL) cell cultures against TK+ VZV strain OKA; assay type: functional, cell-based
E6SM [9] = assay: In vitro antiviral activity in E6 cell cultures against herpes simplex virus type 2 (HSV-2) strain G; assay type: functional; details: Homo sapiens
E6SM [10] = assay: In vitro antiviral activity in E6 cell cultures against herpes simplex virus type 1 (HSV-1) TK- VMW 1837; assay type: functional; details: Homo sapiens
HEL [11] = assay: Evaluated in vitro for antiviral activity in human embryonic lung (HEL) cell cultures against TK- Varicella-Zoster virus (VZV) strain YS/R; assay type: functional, cell-based
HEL [12] = assay: Minimum cytotoxic concentration against human embryonic lung (HEL) cells; assay type: functional
Vero [13] = assay: Evaluated in vitro for antiviral activity in vero cell cultures against forest virus; assay type: functional; details: Chlorocebus sabaeus
Vero [14] = assay: Evaluated in vitro for antiviral activity in vero cell cultures against Parainfluenza virus type 3; assay type: functional; details: Chlorocebus sabaeus
Vero [15] = assay: Evaluated in vitro for antiviral activity in vero cell cultures against Coxsackie virus type B4; assay type: functional; details: Chlorocebus sabaeus
HEL [16] = assay: (§1) Evaluated in vitro for antiviral activity in human embryonic lung (HEL) cell cultures against cytomegalovirus (CMV) strain AD-169; assay type: functional
E6SM [17] = assay: In vitro antiviral activity in E6 cell cultures against herpes simplex virus type 1 (HSV-1) strain KOS; assay type: functional; details: Homo sapiens
CCRF-CEM [18] = assay: 50% effective concentration required to protect CEM cells against the cytopathogenicity of HIV-2; assay type: functional, cell-based; details: Homo sapiens
E6SM [19] = assay: In vitro antiviral activity in E6 cell cultures against vaccinia virus (VV); assay type: functional; details: Homo sapiens
HEL [20] = assay: Evaluated in vitro for antiviral activity in human embryonic lung (HEL) cell cultures against cytomegalovirus (CMV) strain Davis; assay type: functional, cell-based
L1210 = assay: Evaluated in vitro for cytostatic activity against murine leukemia cells (L1210); assay type: functional, cell-based; details: Mus musculus
MOLT-4 = assay: Evaluated in vitro for cytostatic activity against human T-lymphocyte cells (Molt 4/C8); assay type: functional, cell-based
HEL [21] = assay: Evaluated in vitro for antiviral activity in human embryonic lung (HEL) cell cultures against TK- VZV strain 07/1; assay type: functional, cell-based
HeLa = assay: Minimum cytotoxic concentration against HeLa cells; assay type: functional; details: Homo sapiens
HEL [22] = assay: Evaluated in vitro for antiviral activity in HeLa cell cultures against polio virus type 1; assay type: functional; details: Homo sapiens
E6SM [23] = assay: In vitro antiviral activity in E6 cell cultures against herpes simplex virus type 1 (HSV-1) TK- B2006; assay type: functional; details: Homo sapiens
Vero [24] = assay: Minimum cytotoxic concentration against vero cells; assay type: functional; details: Chlorocebus sabaeus
CCRF-CEM [25] = assay: 50% effective concentration required to protect CEM cells against the cytopathogenicity of HIV-1; assay type: functional, cell-based; details: Homo sapiens
CCRF-CEM [26] = assay: Evaluated in vitro for cytostatic activity against CEM cells; assay type: functional, cell-based; details: Homo sapiens
HEL [27] = assay: Evaluated in vitro for antiviral activity in human embryonic lung (HEL) cell cultures against TK + VZV strain OKA; assay type: functional, cell-based
HEL [28] = assay: Evaluated in vitro for antiviral activity in human embryonic lung (HEL) cell cultures against TK - VZV strain OKA; assay type: functional, cell-based
HEL [29] = assay: Evaluated in vitro for antiviral activity in human embryonic lung (HEL) cell cultures against TK+ Varicella-Zoster virus (VZV) strain YS; assay type: functional, cell-based
HEL [30] = assay: as §1; assay type: functional, cell-based
E6SM [31] = assay: Evaluated in vitro for its antiviral activity in E6 cell cultures against herpes simplex virus type 2 (HSV-2) strain G; assay type: functional; details: Homo sapiens
E6SM [32] = assay: Evaluated in vitro for its antiviral activity in E6 cell cultures against herpes simplex virus type 1 (HSV-1) strain KOS; assay type: functional; details: Homo sapiens
E6SM [33] = assay: Evaluated in vitro for its antiviral activity in E6 cell cultures against herpes simplex virus type 1 (HSV-1) TK- B2006; assay type: functional; details: Homo sapiens
HEL [34] = assay: Evaluated in vitro for antiviral activity in human embryonic lung (HEL) cell cultures against […] TK- strain 07/1; assay type: functional, cell-based
E6SM [35] = assay: Evaluated in vitro for its antiviral activity in E6 cell cultures against vesicular stomatitis virus (VSV); assay type: functional; details: Homo sapiens
E6SM [36] = assay: Evaluated in vitro for its antiviral activity in E6 cell cultures against vaccinia virus (VV); assay type: functional; details: Homo sapiens
E6SM [37] = assay: Evaluated in vitro for its antiviral activity in E6 cell cultures against herpes simplex virus type 1 (HSV-1) TK- VMW 1837; assay type: functional; details: Homo sapiens

Row | Structure (SMILES) | MIC (Vero [1]) [µg/mL] | IC50 (FM3A) [µg/mL] | MCC (E6SM [2]) [µg/mL] | CC50 (HEL [3]) [µg/mL] | IC50 (HEL [4]) [µg/mL] | MIC (HEL [5]) [µg/mL] | MIC (E6SM [6]) [µg/mL] | MIC (Vero [7]) [µg/mL] | IC50 (HEL [8]) [µg/mL] | MIC (E6SM [9]) [µg/mL] | MIC (E6SM [10]) [µg/mL] | IC50 (HEL [11]) [µg/mL] | MCC (HEL [12]) [µg/mL] | MIC (Vero [13]) [µg/mL] | MIC (Vero [14]) [µg/mL] | MIC (Vero [15]) [µg/mL] | IC50 (HEL [20]) [µg/mL] | MCC (HeLa) [µg/mL] | MIC (HEL [22]) [µg/mL] | MCC (Vero [24]) [µg/mL] | other results
1 | COc1ccc(C(=O)/C=C/c2cn([C@H]3C[C@H](O)[C@@H](CO)O3)c(=O)[nH]c2=O)cc1 | > 40 | > 100 | 40 | > 200 | > 20 | > 100 | > 10 | > 40 | > 20 | > 10 | > 10 | > 20 | 20 | > 40 | > 40 | > 40 | > 5 | 20 | > 100 | 100 | MIC (HEL [16]): > 5 µg/mL; MIC (E6SM [17]): > 10 µg/mL; EC50 (CCRF-CEM [18]): > 40 µg/mL; MIC (E6SM [19]): > 10 µg/mL; IC50 (L1210): > 100 µg/mL; IC50 (MOLT-4): > 100 µg/mL; IC50 (HEL [21]): > 20 µg/mL; MIC (E6SM [23]): > 10 µg/mL; EC50 (CCRF-CEM [25]): > 40 µg/mL; IC50 (CCRF-CEM [26]): > 100 µg/mL
2 | O=C(/C=C/c1cn([C@H]2C[C@H](O)[C@@H](CO)O2)c(=O)[nH]c1=O)c1ccccc1 | > 200 | 32 (≈ 89.3 µM) | 40 | 140 (≈ 391 µM) | > 20 | 70 (≈ 195 µM) | > 10 | > 200 |  | > 10 | > 10 | > 20 | 50 | > 200 | > 200 | > 200 | > 20 | 20 | > 100 | 400 | IC50 (HEL [27]): > 20 µg/mL; MIC (HEL [16]): > 20 µg/mL; MIC (E6SM [17]): > 10 µg/mL; EC50 (CCRF-CEM [18]): > 20 µg/mL; MIC (E6SM [19]): > 10 µg/mL; IC50 (L1210): 30 µg/mL (≈ 83.7 µM); IC50 (MOLT-4): 23 µg/mL (≈ 64.2 µM); MIC (E6SM [23]): > 10 µg/mL; EC50 (CCRF-CEM [25]): > 20 µg/mL; IC50 (CCRF-CEM [26]): 24 µg/mL (≈ 67 µM); IC50 (HEL [28]): > 20 µg/mL
3 | Nc1ccn(C[C@@H](CO)OCP(=O)(O)O)c(=O)n1.O.O [CIDOFOVIR] |  |  |  | > 200 |  |  |  |  | 0.065 |  |  | 0.05 | > 50 |  |  |  | 0.075 |  |  |  | IC50 (HEL [29]): 0.09 µg/mL; IC50 (HEL [30]): 0.06 µg/mL; IC50 (HEL [21]): 0.055 µg/mL
4 | O=c1[nH]c(=O)n([C@H]2C[C@H](O)[C@@H](CO)O2)cc1/C=C/Br [BRIVUDINE] | > 400 |  | > 400 | 150 (≈ 450 µM) | 0.002 (≈ 0.006 µM) | > 400 |  | > 400 | 0.0008 (≈ 0.0024 µM) |  |  | > 50 | > 50 | > 400 | > 400 | > 400 |  | > 400 | > 400 | > 400 | MIC (E6SM [31]): 100 µg/mL (≈ 300 µM); MIC (E6SM [32]): 0.02 µg/mL (≈ 0.06 µM); MIC (E6SM [33]): > 400 µg/mL; IC50 (HEL [34]): 5 µg/mL (≈ 15 µM); MIC (E6SM [35]): > 400 µg/mL; MIC (E6SM [36]): 10 µg/mL (≈ 30 µM); MIC (E6SM [37]): > 400 µg/mL
